According to patent US20250213519A1, “SYNERGY FOR INCREASING INSULIN SENSITIVITY” (Board of Supervisors of Louisiana State University and …, priority 2022, published 2025):

Tests used:
human adipocytes = assay: Protein levels by Western blotting in human adipocytes treated for seven days; type: cell-based; details: for SIRT3 protein levels, NR combined with myricetin: 8 μM NR + 50 nM myricetin vs NR or myr alone
Description: Since we saw an increase in SIRT3 mRNA and myricetin upregulates SIRT3 protein in adipocytes from mice, we analyzed levels of SIRT3 protein in human adipocytes treated for seven days with the same concentrations of compounds. Protein was isolated from adipocytes and analyzed on immunoblots probed with antibodies that specifically bind human SIRT3 or human β-actin. […] However, adding myr to NR+BC boosted SIRT3 protein by 37%.
Human adipose-derived stem cells from overweight and obese female donors were purchased from LaCell, LLC (New Orleans, Louisiana) or isolated from lipoaspirate waste donated post-surgery from women with obesity using methods as previously described (31). Cells were seeded, maintained until two days after becoming confluent, and differentiated into adipocytes in the presence of rosiglitazone and isobutylmethylxanthine for five days as previously described (25). Treatments of adipocytes with 8 μM NR and 2 μM carotenoid, dissolved in DMSO at 1000×, started 5 days after the differentiation period and lasted for seven days in adipocyte maintenance medium with heat inactivated serum, before RNA and protein were isolated from adipocyte cultures.
Whole cell protein was isolated from differentiated cell cultures after treatment for seven days, lysed with RIPA buffer containing protease and phosphatase inhibitors, and pushed through a 20-gauge needle four times to disrupt organelles. Fifty micrograms of total cell protein were loaded per lane and resolved in 7.5% SDS-PAGE gels, transferred to nitrocellulose membranes, and probed overnight at 4° C. with specific primary antibodies. Anti-rabbit or -mouse secondary antibodies conjugated to horseradish peroxidase were used for detection of target proteins. Image J was used to quantify protein bands on Western blots. To adjust for variations in total protein loaded in each lane, β-actin was used.

[1] = 25° C.; cited from earlier work
[2] = Estimated human Cmax of myricetin by conversion from rats; details: for Cmax: human, oral

In the case of `O=c1c(O)c(-c2cc(O)c(O)c(O)c2)oc2cc(O)cc(O)c12` [myricetin], the “SIRT3 protein levels, NR combined with myricetin” value (human adipocytes) is reported as “does not increase SIRT3 protein levels”, the “SIRT3 protein levels, NR combined with myricetin” value (human adipocytes; listed as Myricetin) is reported as “did not increase SIRT3 protein levels” and the “SIRT3 protein levels, single agent” value (human adipocytes; 8 μM NR or 50 nM myricetin, 7 days) is reported as “upregulate SIRT3 protein levels”. The “increase in SIRT3 protein” value (human adipocytes; myr added to NR+BC) was 37%, the “increase in SIRT3 mRNA and protein” value (human adipocytes; myr added to NRBC (summary)) was “two-fold” and the stability half-life [1] was 23 h. For the same compound, the “Human Cmax” value ([2]; 564 mg dose, conversion from 50 mg/kg in rats) was 39400 nM, the Cmax ([2]; 10 mg) was about 400 nM and the Cmax ([2]; 564 mg) was about 2500 nM.
